The source of these data is ChEMBL document CHEMBL1909046, “DrugMatrix in vitro pharmacology data”.

Assay [1] has as its target T1, Muscarinic acetylcholine receptor M4 (Homo sapiens, UniProt P08173). Further: in other assays of this panel Not Active means under 50% inhibition at 10 µM.
T1 sequence (P08173 whole entry): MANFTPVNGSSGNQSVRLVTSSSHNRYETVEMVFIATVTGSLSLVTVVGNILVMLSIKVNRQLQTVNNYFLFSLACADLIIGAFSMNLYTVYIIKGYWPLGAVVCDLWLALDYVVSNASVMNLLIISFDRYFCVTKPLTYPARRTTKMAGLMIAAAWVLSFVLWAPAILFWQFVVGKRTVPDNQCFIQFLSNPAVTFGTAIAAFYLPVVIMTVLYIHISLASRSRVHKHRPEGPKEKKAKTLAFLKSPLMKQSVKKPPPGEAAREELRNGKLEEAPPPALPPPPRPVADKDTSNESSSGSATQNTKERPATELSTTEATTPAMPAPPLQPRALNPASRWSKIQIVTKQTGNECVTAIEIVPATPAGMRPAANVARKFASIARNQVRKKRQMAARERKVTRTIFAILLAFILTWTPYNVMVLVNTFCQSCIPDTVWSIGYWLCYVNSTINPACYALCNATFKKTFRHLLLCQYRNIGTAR
Type of assay: cell membranes, CHO-K1, Membrane. Conditions: cho-k1.

Assay [2] concerns the target cGMP-specific 3',5'-cyclic phosphodiesterase (Homo sapiens, UniProt O76074). Kind of assay: DRUGMATRIX: Phosphodiesterase PDE5 enzyme inhibition (substrate: [3H]cGMP + cGMP). Conditions: Not Active = under 50% inhibition at 10 µM. In kind it is tissue-based, Platelet.
For the next assay, the target named is Acetylcholinesterase (Homo sapiens, UniProt P22303). The assay can be described thus: DRUGMATRIX: Acetylcholinesterase enzyme inhibition (substrate: acetylthiocholine). Type of assay: cell-based, HEK293. The note with it: hek293; Not Active = under 50% inhibition at 10 µM.
Sequence of Acetylcholinesterase (P22303 whole entry): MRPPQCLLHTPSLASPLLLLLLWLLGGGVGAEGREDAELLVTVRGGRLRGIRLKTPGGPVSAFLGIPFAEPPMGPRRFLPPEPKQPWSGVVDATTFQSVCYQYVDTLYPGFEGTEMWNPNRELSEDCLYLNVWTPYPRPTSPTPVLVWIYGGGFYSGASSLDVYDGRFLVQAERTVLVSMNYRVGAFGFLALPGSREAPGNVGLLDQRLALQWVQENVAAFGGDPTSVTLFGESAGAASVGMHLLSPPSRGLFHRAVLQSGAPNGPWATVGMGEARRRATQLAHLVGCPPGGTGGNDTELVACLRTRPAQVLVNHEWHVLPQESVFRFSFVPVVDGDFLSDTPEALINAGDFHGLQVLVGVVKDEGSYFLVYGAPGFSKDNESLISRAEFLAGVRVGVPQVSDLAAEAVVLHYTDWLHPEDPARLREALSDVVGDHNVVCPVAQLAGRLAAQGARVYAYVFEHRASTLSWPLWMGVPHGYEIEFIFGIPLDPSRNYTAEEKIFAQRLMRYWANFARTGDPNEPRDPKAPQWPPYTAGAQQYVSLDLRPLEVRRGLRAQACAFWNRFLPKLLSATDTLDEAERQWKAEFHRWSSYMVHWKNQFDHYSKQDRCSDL
Assay [3] in a line: DRUGMATRIX: Imidazoline I2, Central radioligand binding (ligand: [3H] Idazoxan). In kind it is cell membranes, Rattus norvegicus, Wistar, Cerebral cortex, Membrane. The note with it: Not Active = under 50% inhibition at 10 µM.
In assay [4] the target is Tyrosine-protein kinase Lck (Homo sapiens, UniProt P06239). Kind of assay: DRUGMATRIX: Protein Tyrosine Kinase, LCK enzyme inhibition (substrate: Poly(Glu:Tyr)). Type of assay: cell-based, Insect cells. The note with it: Not Active = under 50% inhibition at 10 µM.
Sequence of Tyrosine-protein kinase Lck (P06239 whole entry): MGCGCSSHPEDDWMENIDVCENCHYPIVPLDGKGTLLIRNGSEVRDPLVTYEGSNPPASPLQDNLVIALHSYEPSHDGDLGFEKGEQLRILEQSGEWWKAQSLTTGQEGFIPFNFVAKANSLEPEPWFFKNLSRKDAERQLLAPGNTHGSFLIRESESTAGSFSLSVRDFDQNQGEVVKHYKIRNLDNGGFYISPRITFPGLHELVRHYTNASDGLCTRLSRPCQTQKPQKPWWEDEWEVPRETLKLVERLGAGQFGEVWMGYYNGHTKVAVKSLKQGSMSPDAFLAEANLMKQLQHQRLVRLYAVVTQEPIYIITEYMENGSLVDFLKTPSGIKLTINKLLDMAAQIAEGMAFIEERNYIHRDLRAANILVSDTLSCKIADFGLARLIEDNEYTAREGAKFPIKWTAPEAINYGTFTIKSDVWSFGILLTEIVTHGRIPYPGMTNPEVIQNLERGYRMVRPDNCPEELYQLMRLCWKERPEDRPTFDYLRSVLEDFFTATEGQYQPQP
The nature of assay [5]: DRUGMATRIX: GABAA, Chloride Channel, TBOB radioligand binding (ligand: [3H] TBOB). The note with it: Not Active = under 50% inhibition at 10 µM. Type of assay: cell membranes, Rattus norvegicus, Wistar, Cerebral cortex, Membrane.

In the case of `C1CCN2C[C@@H]3C[C@@H](CN4CCCC[C@@H]34)[C@H]2C1` [SPARTEINE], the concentration for half-maximal inhibition (IC50) entry (in assay [1]; in assay [2] (platelet); on Acetylcholinesterase; in assay [3]; in assay [4] (insect cells); in assay [5]) was “Not Active” throughout. Further, the Ki entry in assay [3] and in assay [5] was “Not Active” throughout.

Take `C[C@]12CCC(=O)C[C@@H]1CC[C@@H]1[C@@H]2CC[C@]2(C)[C@@H](O)CC[C@@H]12` [STANOLONE]: the concentration for half-maximal inhibition (IC50) entry (in assay [1]; in assay [2] (platelet); against Acetylcholinesterase; in assay [3]; in assay [4] (insect cells); in assay [5]) was “Not Active” throughout. The Ki entry in assay [3] and in assay [5] was “Not Active” throughout.

Consider `Cc1cn([C@H]2C=C[C@@H](CO)O2)c(=O)[nH]c1=O` [STAVUDINE], for which the IC50 result (in assay [1]; in assay [2] (platelet); on Acetylcholinesterase; in assay [3]; in assay [4] (insect cells); in assay [5]) was “Not Active” in each case. The Ki result in assay [3] and in assay [5] was “Not Active” each time.

In the case of `CC1(C)[C@H](C(=O)O)N2C(=O)C[C@H]2S1(=O)=O` [SULBACTAM], the IC50 result (in assay [1]; in assay [2] (platelet); against Acetylcholinesterase; in assay [3]; in assay [4] (insect cells); in assay [5]) was “Not Active” each time. Moreover, the Ki entry in assay [3] and in assay [5] was “Not Active” each time.

On to `Cc1ccnc(NS(=O)(=O)c2ccc(N)cc2)n1` [SULFAMERAZINE], for which the concentration for half-maximal inhibition (IC50) result (in assay [1]; in assay [2] (platelet); at Acetylcholinesterase; in assay [3]; in assay [4] (insect cells); in assay [5]) was “Not Active” throughout. Also, the Ki entry in assay [3] and in assay [5] was “Not Active” throughout.

With `Cc1nnc(NS(=O)(=O)c2ccc(N)cc2)s1` [SULFAMETHIZOLE], the 50% inhibitory concentration (IC50) entry (in assay [1]; in assay [2] (platelet); at Acetylcholinesterase; in assay [3]; in assay [4] (insect cells); in assay [5]) was “Not Active” each time. Also, the Ki result in assay [3] and in assay [5] was “Not Active” throughout.

Consider `O=C(O)c1cc(/N=N/c2ccc(S(=O)(=O)Nc3ccccn3)cc2)ccc1O` [SULFASALAZINE], for which the half-inhibitory concentration (IC50) entry (in assay [1]; in assay [2] (platelet); on Acetylcholinesterase; in assay [3]; in assay [4] (insect cells); in assay [5]) was “Not Active” in each case. For the same molecule, the Ki entry in assay [3] and in assay [5] was “Not Active” in each case.

For `CCN1CCCC1CNC(=O)c1cc(S(N)(=O)=O)ccc1OC` (stereo not given) [SULPIRIDE], the IC50 result (in assay [1]; in assay [2] (platelet); against Acetylcholinesterase; in assay [3]; in assay [4] (insect cells); in assay [5]) was “Not Active” throughout. The Ki entry in assay [3] and in assay [5] was “Not Active” throughout.

On to `O=C(OC[C@H]1O[C@@H](OC(=O)c2cc(O)c(O)c(OC(=O)c3cc(O)c(O)c(O)c3)c2)[C@H](OC(=O)c2cc(O)c(O)c(OC(=O)c3cc(O)c(O)c(O)c3)c2)[C@@H](OC(=O)c2cc(O)c(O)c(OC(=O)c3cc(O)c(O)c(O)c3)c2)[C@@H]1OC(=O)c1cc(O)c(O)c(OC(=O)c2cc(O)c(O)c(O)c2)c1)c1cc(O)c(O)c(OC(=O)c2cc(O)c(O)c(O)c2)c1` [TANNIC ACID], for which the IC50 result in assay [1] was “Not Active”; in assay [2] (read-out: IC50), 4700 nM; against Acetylcholinesterase it was “Not Active”; in assay [3] it was “Not Active”; in assay [4] (read-out: IC50) it was 79 nM; in assay [5], “Not Active”. Moreover, the Ki result in assay [3] and in assay [5] was “Not Active” throughout.

As to `C#C[C@]1(O)CC[C@H]2[C@@H]3[C@H](C)CC4=C(CCC(=O)C4)[C@H]3CC[C@@]21C` [TIBOLONE], the IC50 entry (in assay [1]; in assay [2] (platelet); against Acetylcholinesterase; in assay [3]; in assay [4] (insect cells); in assay [5]) was “Not Active” throughout. Moreover, the Ki result in assay [3] and in assay [5] was “Not Active” each time.

Regarding `Cc1cccc(C)c1NC(=O)C(C)N` (stereo not given) [TOCAINIDE], the IC50 result (in assay [1]; in assay [2] (platelet); against Acetylcholinesterase; in assay [3]; in assay [4] (insect cells); in assay [5]) was “Not Active” each time. The Ki result in assay [3] and in assay [5] was “Not Active” each time.

For `Cc1ccc(S(=O)(=O)NC(=O)NN2CCCCCC2)cc1` [TOLAZAMIDE], the concentration for half-maximal inhibition (IC50) entry (in assay [1]; in assay [2] (platelet); against Acetylcholinesterase; in assay [3]; in assay [4] (insect cells); in assay [5]) was “Not Active” in each case. The Ki result in assay [3] and in assay [5] was “Not Active” throughout.

Regarding `CC[C@@]1(O)C(=O)OCc2c1cc1n(c2=O)Cc2cc3c(CN(C)C)c(O)ccc3nc2-1` [TOPOTECAN], the IC50 result (in assay [1]; in assay [2] (platelet); against Acetylcholinesterase; in assay [3]; in assay [4] (insect cells); in assay [5]) was “Not Active” each time. Further, the Ki result in assay [3] and in assay [5] was “Not Active” each time.

On to `CC1=C(/C=C/C(C)=C/C=C/C(C)=C/C(=O)O)C(C)(C)CCC1` [TRETINOIN], for which the IC50 result (in assay [1]; in assay [2] (platelet); against Acetylcholinesterase; in assay [3]; in assay [4] (insect cells); in assay [5]) was “Not Active” each time. Also, the Ki entry in assay [3] and in assay [5] was “Not Active” each time.

Regarding `CC(Cl)(Cl)Cl` [TRICHLOROETHANE], the half-maximal inhibitory concentration (IC50) entry (in assay [1]; in assay [2] (platelet); at Acetylcholinesterase; in assay [3]; in assay [4] (insect cells); in assay [5]) was “Not Active” each time. In addition, the Ki entry in assay [3] and in assay [5] was “Not Active” throughout.

With `CN1C(=O)OC(C)(C)C1=O` [TRIMETHADIONE], the IC50 result (in assay [1]; in assay [2] (platelet); against Acetylcholinesterase; in assay [3]; in assay [4] (insect cells); in assay [5]) was “Not Active” each time. Besides, the Ki entry in assay [3] and in assay [5] was “Not Active” in each case.

In the case of LEAD(IV) ACETATE, the IC50 result (in assay [1]; in assay [2] (platelet); on Acetylcholinesterase; in assay [3]; in assay [4] (insect cells); in assay [5]) was “Not Active” each time. Also, the Ki result (in assay [1]; in assay [2] (platelet); at Acetylcholinesterase; in assay [3]; in assay [4] (insect cells); in assay [5]) was “Not Active” throughout.
